# Experiments:
# [1] = tested on: many susceptible organisms; conditions: for many susceptible organisms; cited from earlier work
# [2] = Serum levels of cefazolin after a single intravenous dose; assay type: in vivo, mice
# Method: (§1) The antibacterial activity was measured by an agar well diffusion bioassay, though other assays for antibacterial activity or chemical, or immunological assays for the drug substance are known to those skilled in the art. Briefly, the agar well diffusion bioassay used here were performed by cutting wells into an agar such as Trypticaso Soy Agar (Difco., Detroit, MI) that were previously seeded with a test bacteria such as Bacillus subtilis (ATCC #6633). The wells were filled with a small amount of test material here about 50ul of the test sample, and the agar plates were incubated. Bacillus subtilis incubation was for about 16-24 hours at about 35°C. Growth of a bacterial "lawn" around the well was inhibited by antibiotic present in the agar as diffused from the test sample. The diameters of the zones of inhibited growth around the wells were proportional to the concentration of antibiotic in the test sample and were quantitated by comparison with known, standard antibiotic solutions.
# Both cephapirin and cefazolin display prolonged activity in serum and activity at a higher level by the cephalosporin:lipid complex preparation as compared to the free drug. […] Extended prophylactic activity in the serum can also be achieved by subcutaneous administration of a cephalosporin:lipid complex antibiotic.
# Intravenous injection of a single 100mg/kg dose of free cefazolin dosium in mice results in a mean serum concentration of 8 to 20ug/ml at one hour post dose (Fig. 9).
# in vivo = conditions: mouse, iv, 924 mg/kg
# Method: Contrast agents were tested in mice by injecting a single intravenous dose of free or complexed contrast agent (diatrizoate) via the tail vein. […] The specific activity of the doses were about 10000 c/mg I.
# [3] = tested on: S. typhimurium (ATCC #14028); test: Salmonella typhimurium Septicemia Model; assay type: in vivo, Mice; conditions: 700 CFU intravenously; treatment on days 2 and 4 post-inoculation; groups of 10
# Method: Salmonella typhimurium Septicemia Model: S. typhimurium (ATCC #14028) was grown in trypticase soy broth at 35°C overnight. Aliquots of this suspension were frozen and maintained at -70°C. For use, cultures were thawed and diluted to contain 700 CFU/ml in 0.9% saline. Mice were inoculated intravenously (0.1 ml) via the lateral tail vein. Treatment was given at various times after infection. Mortality was monitored daily for two weeks.
# Mice (in groups of 10) that were inoculated intravenously with 700 CFU of S. typhimurium and received no treatment died within 6-8 days after infection (Fig. 11). […] In this case, the cephalosporin:lipid complex preparation was not washed so that 30% of the administered dose was encapsulated.
# [4] = Tissue distribution of cephapirin activity after intravenous administration (agar well diffusion bioassay); assay type: in vivo, mice; conditions: 200 mg/kg intravenous; for concentration at 1 h / concentration at 3 h / concentration at 7 h / concentration at 10 h / concentration at 24 h: mouse
# Method: as §1
# [5] = Serum levels of cephapirin activity after subcutaneous or intravenous administration; assay type: in vivo, mice
# Method: as §1
# Cephapirin activity in the serum of mice was determined at intervals after subcutaneous or intravenous administration of free or complexed drug. […] Maximal activity was found in the serum of mice given free cephapirin (by either route) at the earliest time points examined (one half to one hour post-injection). […] With a 200 mg/kg dose, serum levels were 10 ug/ml or greater for 24 hours after injection. […]
# S. aureus (ATCC #29740) [6] = test: In vitro minimal inhibitory concentration by micro-titer dilution method; assay type: cell-based; conditions: Staphylococcus aureus, ATCC29740
# S. aureus (ATCC #29740) [7] = test: Staphylococcal Abscess Model; assay type: in vivo, Mice (out-bred CD-1 males); conditions: single dose (200 mg/kg)
# Method: Staphylococcal Abscess Model. S. aureus (ATCC #29740) was grown overnight at 30°C in trypticase soy broth. Aliquots of this suspension were frozen at -70°C. […] For use, cultures were thawed and diluted with saline to contain the desired number of colony forming units (CFU) per ml. Mice (out-bred CD-1 males) were injected subcutaneously with 0.1 ml of S. aureus suspension in the abdominal area. Treatment with free or encapsulated drug was given before or after infection. At four days after infection, mice were killed by cervical dislocation, the abscesses were carefully dissected out and their diameters measured.
# To determine the effect of treatment on abscess development, mice were given a single intravenous or subcutaneous injection of free or complexed cephapirin at various times before or after injection.
# S. aureus = test: Staphylococcal Septicemia Model; assay type: in vivo, Mice; conditions: for % Survival at 72 hours: 10 mice
# Method: Staphylococcal Septicemia Model. The S. aureus inoculum was prepared as for the abscess model. Mice were inoculated intraperitoneally with 2 x 10⁸ CFU in 5% hog/mucin. Treatment was given before or after infection. […]
# The effect of free and CHStris cephalosporin:lipid complex cephapirin was compared in an acute staphylococcus septicemia model.
molecule,measurement,setting,value
cefazolin sodium [free cefazolin],MICp,[1],about 0.5 ug (base weight)/ml (plasma or serum)
same,MICt,[1],about 0.5 ug (base weight)/mg (spleen)
same,mean serum concentration,"[2]; mouse, in vivo, iv, 100 mg/kg, 1 h",8000 to 20000 ng/mL
same,serum level,"[2]; mouse, in vivo, iv, 100 mg/kg, 2 h",approximately 2 ug/ml
same,serum level,"[2]; single 100mg/kg intravenous dose, at 3 hours after administration",below the level of detection
"CC(=O)Nc1c(I)c(NC(C)=O)c(I)c(C(=O)O)c1I [free diatrizoate, diatrizoate]",concentration at 0.5 h,in vivo,2.8e+06 ng/g
same,concentration at 1 h,in vivo,800000 ng/g
same,concentration at 1.5 h,in vivo,300000 ng/g
"CC(=O)OCC1=C(C(=O)O)N2C(=O)[C@@H](NC(=O)CSc3ccncc3)[C@H]2SC1 [Free Cephapirin, cephapirin sodium]",survival,[3],did not prolong survival
same,activity in tissues,[4]; at 3 hours or later,No activity was detected
same,concentration at 1 h,"[4]; KIDNEY, time 1 (hours after injection), mean of 3 to 5 mice ± S.E.M.",49000 ± 8000 ng/g
same,concentration at 3 h,"[4]; KIDNEY, mean ± S.E.M.",< 500 ng/g
same,concentration at 7 h,"[4]; KIDNEY, mean ± S.E.M.",< 500 ng/g
same,concentration at 10 h,"[4]; KIDNEY, mean ± S.E.M.",< 500 ng/g
same,concentration at 24 h,"[4]; KIDNEY, mean ± S.E.M.",< 500 ng/g
same,concentration at 1 h,"[4]; LIVER, time 1, mean ± S.E.M.",46000 ± 12000 ng/g
same,concentration at 3 h,"[4]; LIVER, mean ± S.E.M.",< 500 ng/g
same,concentration at 7 h,"[4]; LIVER, mean ± S.E.M.",< 500 ng/g
same,concentration at 10 h,"[4]; LIVER, mean ± S.E.M.",< 500 ng/g
same,concentration at 24 h,"[4]; LIVER, mean ± S.E.M.",< 500 ng/g
same,concentration at 1 h,"[4]; SPLEEN, time 1, mean ± S.E.M.",< 500 ng/g
same,concentration at 3 h,"[4]; SPLEEN, mean ± S.E.M.",< 500 ng/g
same,concentration at 7 h,"[4]; SPLEEN, mean ± S.E.M.",< 500 ng/g
same,concentration at 10 h,"[4]; SPLEEN, mean ± S.E.M.",< 500 ng/g
same,concentration at 24 h,"[4]; SPLEEN, mean ± S.E.M.",< 500 ng/g
same,activity in the serum,[5]; at 3 hours or later,no activity was detectable
same,half-life of free drug,"[5]; serum, both intravenous and sub-cutaneous administration, estimated",approximately 20 minutes
same,MIC,S. aureus (ATCC #29740) [6],0.05 to 0.1 µg/mL
same,effect on abscess size,S. aureus (ATCC #29740) [7]; four hours before infection (complex: up to four hours before),no effect on abscess size
same,effect on abscess size,S. aureus (ATCC #29740) [7]; one hour after infection,significantly reduces or prevents abscess development
same,effect on abscess size,S. aureus (ATCC #29740) [7]; one hour before infection,reduced abscess size slightly
same,% Survival at 72 hours,"S. aureus; treated subcutaneously -1 hour, 50 mg/kg",100%
same,% Survival at 72 hours,"S. aureus; treated subcutaneously -1 hour, 100 mg/kg",100%
same,% Survival at 72 hours,"S. aureus; treated subcutaneously -1 hour, 200 mg/kg",100%
same,% Survival at 72 hours,"S. aureus; treated subcutaneously -4 hour, 50 mg/kg",0%
same,% Survival at 72 hours,"S. aureus; treated subcutaneously -4 hour, 100 mg/kg",10%
same,% Survival at 72 hours,"S. aureus; treated subcutaneously -4 hour, 200 mg/kg",0%
same,survival,"S. aureus; treated subcutaneously at one hour before infection, end of the experiment (14 days)",survived until the end of the experiment
same,survival,S. aureus; treatment at four hours before infection,no effect on survival

# — patent EP0414806B1, “HIGH RATIO ACTIVE AGENT:LIPID COMPLEX” (THE LIPOSOME COMPANY, INC., priority 1988, dated 1989)
